A word on the pIC50: it is the negative decadic logarithm of the IC50, by convention in mol/L. A lower pIC50 goes with a high IC50.

The test addresses T1, P2X7 (UniProt Q99572).
T1 sequence (Q99572 1-595): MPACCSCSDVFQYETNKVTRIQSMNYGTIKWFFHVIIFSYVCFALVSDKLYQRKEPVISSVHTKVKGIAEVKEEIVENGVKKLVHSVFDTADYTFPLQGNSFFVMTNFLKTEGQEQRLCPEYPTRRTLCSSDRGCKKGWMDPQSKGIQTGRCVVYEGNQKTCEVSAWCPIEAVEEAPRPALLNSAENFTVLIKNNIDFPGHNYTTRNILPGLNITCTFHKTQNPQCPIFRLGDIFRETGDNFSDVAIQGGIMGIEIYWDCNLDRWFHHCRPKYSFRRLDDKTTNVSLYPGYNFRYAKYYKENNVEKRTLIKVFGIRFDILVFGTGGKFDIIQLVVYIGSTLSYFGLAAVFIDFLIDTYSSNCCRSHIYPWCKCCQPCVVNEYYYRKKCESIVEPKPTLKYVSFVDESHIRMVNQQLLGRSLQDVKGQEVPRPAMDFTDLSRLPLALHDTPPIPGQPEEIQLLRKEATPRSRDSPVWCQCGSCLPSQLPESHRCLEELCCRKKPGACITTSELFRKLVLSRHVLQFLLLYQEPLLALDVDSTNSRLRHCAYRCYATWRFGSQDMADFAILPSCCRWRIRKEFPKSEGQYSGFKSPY
Briefly: pIC50 values for P2X7 (Table 1). The class given is cell-based. In a few lines: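 Fluo-3-loaded 1321N1 cells expressing human P2X7 or HEK293 cells expressing rat P2X7, preincubated 20 min at room temperature with antagonist in HBSS/Hepes/probenecid buffer with 2 mM CaCl2. BzATP agonist at 100 μM final (human) or 5 μM final (rat); fluorescence read 5 min, peak normalized to 5 μM ionomycin response.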
In turn, `COc1ccc(NC(=O)N2C=CC(=O)C[C@H]2c2ccc(F)cc2)c(C)c1` [Compound 100, (S)-2-(4-Fluoro-phenyl)-4-oxo-3,4-dihydro-2H-pyridine-1-carboxylic acid (4-methoxy-2-methyl-phenyl)-amide] had a negative logarithm of the IC50 (pIC50) of 7.05. The same measure for `Cn1ccc2ccc(NC(=O)N3C=CC(=O)C[C@H]3c3ccc(F)cc3)cc21` [Compound 101, (S)-2-(4-Fluoro-phenyl)-4-oxo-3,4-dihydro-2H-pyridine-1-carboxylic acid (1-methyl-1H-indol-6-yl)-amide]: 7.57; for `Cc1cc2cccnc2cc1NC(=O)N1C=CC(=O)C[C@H]1c1ccc(F)cc1` [Compound 102, (S)-2-(4-Fluoro-phenyl)-4-oxo-3,4-dihydro-2H-pyridine-1-carboxylic acid (6-methyl-quinolin-7-yl)-amide]: 6.56. The same measure for `Cc1ccc(NC(=O)N2C=CC(=O)C[C@H]2c2ccc(F)cc2)c(C)c1` [Compound 103, (S)-2-(4-Fluoro-phenyl)-4-oxo-3,4-dihydro-2H-pyridine-1-carboxylic acid (2,4-dimethyl-phenyl)-amide]: 7.415.

For the compound `Cc1cc(C)cc(NC(=O)N2C=CC(=O)C[C@H]2c2ccc(F)cc2)c1` [Compound 104, (S)-2-(4-Fluoro-phenyl)-4-oxo-3,4-dihydro-2H-pyridine-1-carboxylic acid (3,5-dimethyl-phenyl)-amide], the pIC50 is 7.655.

As for `COc1ccccc1NC(=O)N1C=CC(=O)CC1c1ccc(F)cc1` (stereo not drawn) [Compound 105, 2-(4-Fluoro-phenyl)-4-oxo-3,4-dihydro-2H-pyridine-1-carboxylic acid (2-methoxy-phenyl)-amide], the pIC50 is reported as 5.91. The same measure for `O=C1C=CN(C(=O)Nc2ccc3ncccc3c2Br)[C@H](c2ccc(F)cc2)C1` [Compound 106, (S)-2-(4-Fluoro-phenyl)-4-oxo-3,4-dihydro-2H-pyridine-1-carboxylic acid (5-bromo-quinolin-6-yl)-amide]: 7.785; for `Cc1cc2nccnc2cc1NC(=O)N1C=CC(=O)C[C@H]1c1ccc(F)cc1` [Compound 107, (S)-2-(4-Fluoro-phenyl)-4-oxo-3,4-dihydro-2H-pyridine-1-carboxylic acid (7-methyl-quinoxalin-6-yl)-amide]: 7.095.

For the compound `Cc1cc(NC(=O)N2C=CC(=O)CC2c2ccc(F)cc2)n(C)n1` (stereo not drawn) [Compound 108, 2-(4-Fluoro-phenyl)-4-oxo-3,4-dihydro-2H-pyridine-1-carboxylic acid (2,5-dimethyl-2H-pyrazol-3-yl)-amide], the pIC50 amounted to 6.043. As for `COc1cccc(NC(=O)N2C=CC(=O)CC2c2ccc(F)cc2)c1C` (stereo not drawn) [Compound 109, 2-(4-Fluoro-phenyl)-4-oxo-3,4-dihydro-2H-pyridine-1-carboxylic acid (3-methoxy-2-methyl-phenyl)-amide], the figure is 8.433; as for `COc1cccc(NC(=O)N2C=CC(=O)CC2c2ccc(F)cc2)c1OC` (stereo not drawn) [Compound 110, 2-(4-Fluoro-phenyl)-4-oxo-3,4-dihydro-2H-pyridine-1-carboxylic acid (2,3-dimethoxy-phenyl)-amide], 6.89; as for `Cc1cc(F)c(OCCO)cc1NC(=O)N1C=CC(=O)C[C@H]1c1ccc(F)cc1` [Compound 111, (S)-2-(4-Fluoro-phenyl)-4-oxo-3,4-dihydro-2H-pyridine-1-carboxylic acid [4-fluoro-5-(2-hydroxy-ethoxy)-2-methyl-phenyl]-amide], 8.12. The compound `O=C1C=CN(C(=O)Nc2cc3[nH]c(=O)[nH]c3cc2Br)C(c2ccc(F)cc2)C1` (stereo not drawn) [Compound 112, 2-(4-Fluoro-phenyl)-4-oxo-3,4-dihydro-2H-pyridine-1-carboxylic acid (6-bromo-2-oxo-2,3-dihydro-1H-benzoimidazol-5-yl)-amide] displayed a pIC50 of 5.93. `Cc1nc2cc(NC(=O)N3C=CC(=O)CC3c3ccc(F)cc3)ccc2s1` (stereo not drawn) [Compound 113, 2-(4-Fluoro-phenyl)-4-oxo-3,4-dihydro-2H-pyridine-1-carboxylic acid (2-methyl-benzothiazol-5-yl)-amide] registered a pIC50 of 5.505. The same measure for `Cc1cc(Cl)c(OCCCO)cc1NC(=O)N1C=CC(=O)C[C@H]1c1ccc(F)cc1` [Compound 114, (S)-2-(4-Fluoro-phenyl)-4-oxo-3,4-dihydro-2H-pyridine-1-carboxylic acid [4-chloro-5-(3-hydroxy-propoxy)-2-methyl-phenyl]-amide]: 7.74. In the case of `COc1cc(NC(=O)N2C=CC(=O)CC2c2ccc(F)cc2)c(N(C)C)cc1OC` (stereo not drawn) [Compound 115, 2-(4-Fluoro-phenyl)-4-oxo-3,4-dihydro-2H-pyridine-1-carboxylic acid (2-dimethylamino-4,5-dimethoxy-phenyl)-amide], the pIC50 was determined as 5.915. The same measure for `Cn1ccc2cc(NC(=O)N3C=CC(=O)C[C@H]3c3ccc(F)cc3)ccc21` [Compound 116, (S)-2-(4-Fluoro-phenyl)-4-oxo-3,4-dihydro-2H-pyridine-1-carboxylic acid (1-methyl-1H-indol-5-yl)-amide]: 7.405; for `O=C1C=CN(C(=O)Nc2ccc3ncsc3c2)C(c2ccc(F)cc2)C1` (stereo not drawn) [Compound 117, 2-(4-Fluoro-phenyl)-4-oxo-3,4-dihydro-2H-pyridine-1-carboxylic acid benzothiazol-6-ylamide]: 6.31. The same measure for `Cc1cc(Cl)c(CO)cc1NC(=O)N1C=CC(=O)C[C@H]1c1ccc(F)cc1` [Compound 118, (S)-2-(4-Fluoro-phenyl)-4-oxo-3,4-dihydro-2H-pyridine-1-carboxylic acid (4-chloro-5-hydroxymethyl-2-methyl-phenyl)-amide]: 7.735; for `O=C1C=CN(C(=O)Nc2ccc(OC(F)(F)F)cc2Br)[C@H](c2ccc(F)cc2)C1` [Compound 119]: 6.175; for `CN(C)C(=O)COc1cc(NC(=O)N2C=CC(=O)C[C@H]2c2ccc(F)cc2)c(Br)cc1Cl` [Compound 120, (S)-2-(4-Fluoro-phenyl)-4-oxo-3,4-dihydro-2H-pyridine-1-carboxylic acid (2-bromo-4-chloro-5-dimethylcarbamoylmethoxy-phenyl)-amide]: 6.95. As for `COCCN(C)Cc1cc(NC(=O)N2C=CC(=O)C[C@H]2c2ccc(F)cc2)c(C)cc1Cl` [Compound 121, (S)-2-(4-Fluoro-phenyl)-4-oxo-3,4-dihydro-2H-pyridine-1-carboxylic acid (4-chloro-5-{[(2-methoxy-ethyl)-methyl-amino]-methyl}-2-methyl-phenyl)-amide], the figure is 6.43. With `Cc1cc(Cl)c(CNC(=O)OC(C)(C)C)cc1NC(=O)N1C=CC(=O)C[C@H]1c1ccc(F)cc1` [Compound 122, (2-Chloro-5-{[(S)-2-(4-fluoro-phenyl)-4-oxo-3,4-dihydro-2H-pyridine-1-carbonyl]-amino}-4-methyl-benzyl)-carbamic acid tert-butyl ester], the pIC50 was determined as 5.995.

Compound `CC(=O)NCc1cc(NC(=O)N2C=CC(=O)C[C@H]2c2ccc(F)cc2)c(C)cc1Cl` [Compound 124, (S)-2-(4-Fluoro-phenyl)-4-oxo-3,4-dihydro-2H-pyridine-1-carboxylic acid [5-(acetylamino-methyl)-4-chloro-2-methyl-phenyl]-amide] yielded a pIC50 of 6.98. The same measure for `Cc1c(NC(=O)N2C=CC(=O)C[C@H]2c2ccc(F)cc2)ccc2ncccc12` [Compound 125, (S)-2-(4-Fluoro-phenyl)-4-oxo-3,4-dihydro-2H-pyridine-1-carboxylic acid (5-methyl-quinolin-6-yl)-amide]: 7.16; for `O=C1C=CN(C(=O)Nc2ccccc2)[C@H](c2ccc(F)cc2)C1` [Compound 126, (S)-2-(4-Fluoro-phenyl)-4-oxo-3,4-dihydro-2H-pyridine-1-carboxylic acid phenylamide]: 6.18; for `Cc1cc(Cl)c(CN(CCO)CCO)cc1NC(=O)N1C=CC(=O)C[C@H]1c1ccc(F)cc1` [Compound 127, (S)-2-(4-Fluoro-phenyl)-4-oxo-3,4-dihydro-2H-pyridine-1-carboxylic acid (5-{[bis(2-hydroxy-ethyl)-amino]-methyl}-4-chloro-2-methyl-phenyl)-amide]: 7.615. As to `CN1C(=O)CCc2cc(Br)c(NC(=O)N3C=CC(=O)C[C@H]3c3ccc(F)cc3)cc21` [Compound 128, (S)-2-(4-Fluoro-phenyl)-4-oxo-3,4-dihydro-2H-pyridine-1-carboxylic acid (6-bromo-1-methyl-2-oxo-1,2,3,4-tetrahydro-quinolin-7-yl)-amide], the pIC50 is 7.595. `Cc1cc(Cl)c(CN2CCOCC2)cc1NC(=O)N1C=CC(=O)C[C@H]1c1ccc(F)cc1` [Compound 129, (S)-2-(4-Fluoro-phenyl)-4-oxo-3,4-dihydro-2H-pyridine-1-carboxylic acid (4-chloro-2-methyl-5-morpholin-4-ylmethyl-phenyl)-amide] displayed a negative-log IC50 (pIC50) of 6.945. `Cc1cccc(NC(=O)N2C=CC(=O)C[C@H]2c2ccc(F)cc2)c1` [Compound 130, (S)-2-(4-Fluoro-phenyl)-4-oxo-3,4-dihydro-2H-pyridine-1-carboxylic acid m-tolylamide] registered a pIC50 of 7.12.

The record behind these values is patent US8153809B2, “Dihydropyridone ureas as P2X7 modulators” (Roche Palo Alto LLC, priority 2008, dated 2012).
